Patent US12018267B2, “Plants having increased tolerance to herbicides” (BASF SE, priority 2015, dated 2024)

Columns and labels:
[1] = tested on: transgenic Arabidopsis plants with wildtype or mutated cellulose synthase sequences (SEQ ID NO: 1 or 3); assay: 48-well plate growth inhibition of transgenic T2 Arabidopsis, relative tolerance rates versus non-transgenic (Table E2-1); format: in vivo, Arabidopsis thaliana; details: growth inhibition evaluated seven to ten days after seeding
From the text: For transformation of Arabidopsis thaliana, wildtype or mutated cellulose synthase sequences encoding for one of the following protein sequences SEQ ID NO: 1 or 3, are cloned with standard cloning techniques as described in Sambrook et al. (Molecular cloning (2001) Cold Spring Harbor Laboratory Press) in a binary vector containing resistance marker gene cassette (AHAS) and mutated cellulose synthase sequence (marked as GOI) in between ubiquitin promoter (PcUbi) and nopaline synthase terminator (NOS) sequence. Binary plasmids are introduced to Agrobacterium tumefaciens for plant transformation. Arabidopsis thaliana are transformed with wildtype or mutated cellulose synthase sequences by floral dip method as described by McElver and Singh (WO 2008/124495). Transgenic Arabidopsis plants are subjected to TaqMan analysis for analysis of the number of integration loci.
Transgenic Arabidopsis thaliana plants (T2) are assayed for improved tolerance to azine herbicides like e. g. 6-cyclopentyl-N4-(2,3,4,5,6-pentafluorophenyl)-1,3,5-triazine-2,4-diamine in 48-well plates. Therefore, T2 seeds are surface sterilized by stirring for 5 min in ethanol+water (70+30 by volume), rinsing one time with ethanol+water (70+30 by volume) and two times with sterile, deionized water. The seeds are resuspended in 0.1% agar dissolved in water (w/v) Four to five seeds per well are plated on solid nutrient medium consisting of half-strength murashige skoog nutrient solution, pH 5.8 (Murashige and Skoog (1962) Physiologia Plantarum 15: 473-497). Compounds are dissolved in dimethylsulfoxid (DMSO) and added to the medium prior solidification (final DMSO concentration 0.1%). Multi well plates are incubated in a growth chamber at 22° C., 75% relative humidity and 110 μmol Phot*m^−2*s^−1 with 14:10 h light:dark photoperiod. Growth inhibition is evaluated seven to ten days after seeding in comparison to wild type plants. Tolerance factors are calculated based on IC50 values of growth inhibition of transformed versus non-transformed Arabidopsis plants.

[2] = tested on: wildtype Arabidopsis thaliana; assay: Greenhouse pre-emergent treatment of M3 Arabidopsis seeds, phytotox (injury) rating, wildtype; format: in vivo; details: 21 days after treatment
Description: (§1) Additionally, M3 Arabidopsis seeds are tested for improved tolerance to CESA-inhibiting herbicides in greenhouse studies with azine compounds like e. g. N2-(4-chloro-3,5,6-trifluoro-2-pyridyl)-6-(1-fluorocyclopentyl)-1,3,5-triazine-2,4-diamine (Table E1-1, see also FIG. 3).

[3] = tested on: At_CESA1_R292H (SEQ ID 1 - Variant R292H) M3 Arabidopsis plants; assay: Greenhouse pre-emergent treatment of M3 Arabidopsis seeds, phytotox (injury) rating, CESA1 R292H variant; format: in vivo, Arabidopsis thaliana; details: 21 days after treatment
From the text: For selection of cellulose biosynthesis inhibitor resistant plants EMS mutagenized seed populations of Arabidopsis thaliana are used. EMS mutagenized seed populations are either bought from Lehle Seeds (1102 South Industrial Blvd. Suite D, Round Rock, Texas USA) or are generated as described elsewhere (Heim D R, et al. (1989) Plant Physiol. 90: 146-150). Causative mutations in CESA wildtype sequences (e.g. SEQ ID NO: 1 or 3) are identified as described by Scheible W R et al. (2001, Proc. Natl. Acad. of Sci. 98: 10079-10084), McCourt et. al. (WO2013/142968) or with the use of next generation sequencing methods as described by Austin R S, et al. (2011) Plant Journal 67: 715-725.
as §1

[4] = Construct AtCesA1_G1031R, SEQ ID 1, variant G1031R
[5] = Construct AtCesA1_R292H, SEQ ID 1, variant R292H
[6] = Construct AtCesA1_V297M, SEQ ID 1, variant V297M
[7] = Construct AtCesA1_wt, SEQ ID 1, no variant
[8] = Construct AtCesA3_wt, SEQ ID 3, no variant
[9] = Construct AtCesA1_L1011A, SEQ ID 1, variant L1011A
[10] = Construct AtCesA3_F1039L, SEQ ID 3, variant F1039L

With `Cc1cccc(-n2nc(C(N)=O)nc2-c2ccccc2)c1` the “Relative tolerance rate of transgenic Arabidopsis plants as compared to non-transgenic (non-transgenic = 1.0)” value (“Relative tolerance rate … (non-transgenic = 1.0)” for short) [1, 4] was 13, the “Relative tolerance rate … (non-transgenic = 1.0)” value [1, 5] was 31 and the “Relative tolerance rate … (non-transgenic = 1.0)” value [1, 6] was 5. The “Relative tolerance rate … (non-transgenic = 1.0)” value [1, 7] was 3 and the “Relative tolerance rate … (non-transgenic = 1.0)” value [1, 8] was 4.
Compound `NC(=O)c1nc(-c2ccccc2)n(-c2ccc(Cl)c(COCC(F)(F)C(F)(F)F)c2)n1` [1-[4-chloro-3-(2,2,3,3,3-pentafluoropropoxymethyl)phenyl]-5-phenyl-1,2,4-triazole-3-carboxamide, reference compound] has a phytotox value ([2]; 7.8 g ai/ha) of 12.5, a phytotox value ([2]; 31.25 g ai/ha) of 99 and a phytotox value ([2]; 125 g ai/ha) of 100. For the same compound, the phytotox value ([2]; 250 g ai/ha) was 100, the phytotox value ([3]; At_CESA1_R292H event A, 7.8 g ai/ha) was 7.5 and the phytotox value ([3]; At_CESA1_R292H event A, 31.25 g ai/ha) was 80. It also gave a phytotox value ([3]; At_CESA1_R292H event A, 125 g ai/ha) of 100, a phytotox value ([3]; At_CESA1_R292H event A, 250 g ai/ha) of 100 and a phytotox value ([3]; At_CESA1_R292H event B, 7.8 g ai/ha) of 25. For the same compound, the phytotox value ([3]; At_CESA1_R292H event B, 31.25 g ai/ha) was 52.5, the phytotox value ([3]; At_CESA1_R292H event B, 125 g ai/ha) was 100 and the phytotox value ([3]; At_CESA1_R292H event B, 250 g ai/ha) was 100. The “Relative tolerance rate … (non-transgenic = 1.0)” value [1, 9] was 7 and the “Relative tolerance rate … (non-transgenic = 1.0)” value [1, 10] was 3.
`Nc1nc(Nc2nc(F)c(F)c(Cl)c2F)nc(C2(F)CCCC2)n1` [N2-(4-chloro-3,5,6-trifluoro-2-pyridyl)-6-(1-fluorocyclopentyl)-1,3,5-triazine-2,4-diamine] showed a phytotox value ([2]; 0.5 g ai/ha) of 60, a phytotox value ([2]; 1 g ai/ha) of 65 and a phytotox value ([2]; 2 g ai/ha) of 98. It also gave a phytotox value ([2]; 4 g ai/ha) of 100, a phytotox value ([3]; At_CESA1_R292H event A, 0.5 g ai/ha) of 10 and a phytotox value ([3]; At_CESA1_R292H event A, 1 g ai/ha) of 10. It also gave a phytotox value ([3]; At_CESA1_R292H event A, 2 g ai/ha) of 45, a phytotox value ([3]; At_CESA1_R292H event A, 4 g ai/ha) of 94 and a phytotox value ([3]; At_CESA1_R292H event B, 0.5 g ai/ha) of 5. For the same compound, the phytotox value ([3]; At_CESA1_R292H event B, 1 g ai/ha) was 0, the phytotox value ([3]; At_CESA1_R292H event B, 2 g ai/ha) was 17.5 and the phytotox value ([3]; At_CESA1_R292H event B, 4 g ai/ha) was 87.5. For the same compound, the “Relative tolerance rate … (non-transgenic = 1.0)” value [1, 4] was 3, the “Relative tolerance rate … (non-transgenic = 1.0)” value [1, 9] was 1 and the “Relative tolerance rate … (non-transgenic = 1.0)” value [1, 5] was 1. For the same compound, the “Relative tolerance rate … (non-transgenic = 1.0)” value [1, 6] was 1, the “Relative tolerance rate … (non-transgenic = 1.0)” value [1, 7] was 2 and the “Relative tolerance rate … (non-transgenic = 1.0)” value [1, 10] was 1. The “Relative tolerance rate … (non-transgenic = 1.0)” value [1, 8] was 1.
